Like-named read-outs stand apart in the source and are kept apart here.
Key:
human TLR8 = human TLR8 (Homo sapiens (Human), UniProt Q9NR97); experiment: TLR8 inhibition reporter assay (HEK-Blue SEAP);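 also: SEAP driven by IFN-β minimal promoter with five NF-κB and AP-1 sites, compounds tested 0.05 nM to 50 µM, 22 h incubation, inhibition relative to agonist plus DMSO wells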
human TLR7 = human TLR7 (Homo sapiens (Human), UniProt Q9NYK1); experiment: TLR7 inhibition reporter assay (HEK-Blue SEAP); assay type: cell-based; details: HEK-Blue cells overexpressing human TLR7, gardiquimod 7.5 μM stimulation
Sequence of human TLR7 (Q9NYK1 27-1049): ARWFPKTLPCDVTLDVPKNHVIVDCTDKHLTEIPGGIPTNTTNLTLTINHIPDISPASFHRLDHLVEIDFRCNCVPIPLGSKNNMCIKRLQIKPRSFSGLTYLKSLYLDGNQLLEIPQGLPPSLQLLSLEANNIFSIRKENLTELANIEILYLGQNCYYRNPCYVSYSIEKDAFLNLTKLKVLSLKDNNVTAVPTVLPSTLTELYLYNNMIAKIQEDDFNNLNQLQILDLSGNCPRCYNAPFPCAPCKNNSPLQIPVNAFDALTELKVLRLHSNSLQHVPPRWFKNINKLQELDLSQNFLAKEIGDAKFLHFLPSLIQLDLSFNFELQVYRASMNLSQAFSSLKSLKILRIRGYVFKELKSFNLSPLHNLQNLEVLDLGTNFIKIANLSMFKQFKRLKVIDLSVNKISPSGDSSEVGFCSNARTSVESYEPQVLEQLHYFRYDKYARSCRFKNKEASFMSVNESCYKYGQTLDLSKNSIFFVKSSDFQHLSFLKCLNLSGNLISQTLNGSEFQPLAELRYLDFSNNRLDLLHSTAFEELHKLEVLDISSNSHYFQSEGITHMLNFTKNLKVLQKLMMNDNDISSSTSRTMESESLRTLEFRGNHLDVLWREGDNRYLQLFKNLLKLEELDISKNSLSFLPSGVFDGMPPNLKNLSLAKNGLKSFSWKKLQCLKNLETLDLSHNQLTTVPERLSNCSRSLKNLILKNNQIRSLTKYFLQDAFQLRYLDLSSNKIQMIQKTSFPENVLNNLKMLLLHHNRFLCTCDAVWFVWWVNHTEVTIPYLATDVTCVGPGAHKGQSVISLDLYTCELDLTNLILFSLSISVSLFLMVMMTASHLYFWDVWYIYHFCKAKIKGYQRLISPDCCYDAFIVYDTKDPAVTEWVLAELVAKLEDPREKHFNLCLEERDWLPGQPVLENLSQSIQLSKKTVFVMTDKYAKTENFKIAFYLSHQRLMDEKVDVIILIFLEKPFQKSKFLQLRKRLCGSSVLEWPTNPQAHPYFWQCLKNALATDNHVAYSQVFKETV

human TLR9 = human TLR9 (Homo sapiens (Human), UniProt Q9NR96); experiment: TLR9 inhibition reporter assay (HEK-Blue SEAP);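 also: SEAP driven by IFN-β minimal promoter carrying five NF-κB and AP-1 sites, 22 h at 37 °C, compounds 0.05 nM–50 µM, inhibition scaled between agonist-plus-DMSO and reference-inhibitor wells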
Sequence of human TLR9 (Q9NR96 26-1032): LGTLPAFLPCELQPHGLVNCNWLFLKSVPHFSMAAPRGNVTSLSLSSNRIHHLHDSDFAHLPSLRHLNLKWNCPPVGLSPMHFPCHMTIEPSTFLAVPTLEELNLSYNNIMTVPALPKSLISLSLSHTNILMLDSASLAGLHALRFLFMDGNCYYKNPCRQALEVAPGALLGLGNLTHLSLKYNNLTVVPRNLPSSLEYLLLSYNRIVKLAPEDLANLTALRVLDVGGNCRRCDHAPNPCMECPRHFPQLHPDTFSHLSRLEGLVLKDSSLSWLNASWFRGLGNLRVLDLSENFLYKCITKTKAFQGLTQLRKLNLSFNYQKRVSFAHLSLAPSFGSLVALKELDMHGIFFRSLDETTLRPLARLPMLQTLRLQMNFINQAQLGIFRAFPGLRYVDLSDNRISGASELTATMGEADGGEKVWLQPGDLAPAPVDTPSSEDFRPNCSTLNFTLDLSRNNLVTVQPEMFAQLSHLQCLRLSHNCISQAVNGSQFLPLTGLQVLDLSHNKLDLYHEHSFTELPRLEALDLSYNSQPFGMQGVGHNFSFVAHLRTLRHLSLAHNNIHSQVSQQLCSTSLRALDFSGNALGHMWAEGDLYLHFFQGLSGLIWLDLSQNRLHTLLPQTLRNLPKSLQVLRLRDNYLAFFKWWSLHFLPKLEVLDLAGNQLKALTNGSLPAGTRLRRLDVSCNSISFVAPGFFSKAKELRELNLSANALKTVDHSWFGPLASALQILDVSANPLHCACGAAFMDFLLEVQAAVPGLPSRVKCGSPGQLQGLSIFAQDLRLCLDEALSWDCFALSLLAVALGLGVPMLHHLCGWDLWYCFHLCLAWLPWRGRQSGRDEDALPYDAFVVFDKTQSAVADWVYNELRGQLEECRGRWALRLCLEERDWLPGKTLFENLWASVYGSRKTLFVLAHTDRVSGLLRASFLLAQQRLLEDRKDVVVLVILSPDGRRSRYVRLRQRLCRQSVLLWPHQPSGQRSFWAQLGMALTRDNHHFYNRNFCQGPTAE

[1] = read-out: TLR8 IC50; HEK-Blue cells overexpressing human TLR8, R848 15.9 μM stimulation, SEAP reporter
[2] = read-out: TLR9 IC50; HEK-Blue cells overexpressing human TLR9, ODN2006 5 nM stimulation, SEAP reporter
[3] = read-out: TLR8 IC50; HEK-Blue cells overexpressing human TLR8; R848 15.9 μM stimulation; SEAP reporter
[4] = read-out: TLR9 IC50; HEK-Blue cells overexpressing human TLR9; ODN2006 5 nM stimulation; SEAP reporter

Sequence of human TLR8 (Q9NR97 27-1041): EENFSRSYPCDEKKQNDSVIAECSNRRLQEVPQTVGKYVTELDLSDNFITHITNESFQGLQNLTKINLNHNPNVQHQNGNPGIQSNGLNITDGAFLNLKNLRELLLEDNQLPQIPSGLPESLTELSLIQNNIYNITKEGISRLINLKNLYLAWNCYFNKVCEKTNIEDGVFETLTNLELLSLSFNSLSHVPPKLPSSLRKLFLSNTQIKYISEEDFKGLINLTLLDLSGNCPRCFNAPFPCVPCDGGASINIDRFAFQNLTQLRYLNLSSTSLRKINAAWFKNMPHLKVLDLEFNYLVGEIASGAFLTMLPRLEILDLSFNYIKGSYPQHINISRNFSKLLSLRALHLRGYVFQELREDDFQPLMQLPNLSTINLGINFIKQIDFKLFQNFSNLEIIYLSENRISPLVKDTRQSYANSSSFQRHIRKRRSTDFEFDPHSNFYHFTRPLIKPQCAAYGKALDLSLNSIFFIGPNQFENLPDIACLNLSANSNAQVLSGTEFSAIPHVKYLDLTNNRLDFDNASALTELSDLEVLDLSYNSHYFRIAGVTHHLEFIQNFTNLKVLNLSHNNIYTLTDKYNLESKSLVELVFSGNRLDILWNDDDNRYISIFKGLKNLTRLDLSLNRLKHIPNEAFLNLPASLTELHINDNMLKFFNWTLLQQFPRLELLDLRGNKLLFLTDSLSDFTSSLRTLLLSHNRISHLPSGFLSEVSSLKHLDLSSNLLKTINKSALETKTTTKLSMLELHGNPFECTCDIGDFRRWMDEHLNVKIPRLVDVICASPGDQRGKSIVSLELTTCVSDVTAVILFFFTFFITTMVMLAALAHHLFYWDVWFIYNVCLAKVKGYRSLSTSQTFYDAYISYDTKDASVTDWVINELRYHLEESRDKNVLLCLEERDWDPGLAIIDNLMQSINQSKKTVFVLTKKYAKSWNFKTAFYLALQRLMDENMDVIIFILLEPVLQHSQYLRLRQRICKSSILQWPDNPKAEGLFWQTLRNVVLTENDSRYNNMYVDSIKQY

COCCN1CCN(c2ncc3[nH]c(-c4cc(OC)c5ncnn5c4)c(C(C)C)c3c2C)CC1 [Example 126]
IC50 (human TLR8; [1]): 3.2 nM | IC50 (human TLR7): 8.2 nM | IC50 (human TLR9; [2]): 2530 nM

COc1cc(-c2[nH]c3cnc(C4CCC(NCC(C)(C)F)CC4)c(C)c3c2C(C)C)cn2ncnc12 (centres unmarked) [Example 244]
IC50 (human TLR8; [1]): 16 nM | IC50 (human TLR7): 8.9 nM | IC50 (human TLR9; [2]): 583 nM

CCN(C)C1CCN(c2ncc3[nH]c(-c4cc(C)c5ncnn5c4)c(C(C)C)c3c2F)CC1 [Example 69]
IC50 (human TLR8; [1]): 0.55 nM | IC50 (human TLR7): 0.55 nM | IC50 (human TLR9; [2]): 4050 nM

Cc1cc(-c2[nH]c3cnc(N4CCNCC4)cc3c2C(C)C)cn2ncnc12 [Example 301]
IC50 (human TLR8; [1]): > 3120 nM | IC50 (human TLR7): > 3120 nM | IC50 (human TLR9; [2]): 2680 nM

COCCNC1CCN(c2ncc3[nH]c(-c4cc(OC)c5ncnn5c4)c(C(C)C)c3c2F)CC1 [Example 99]
IC50 (human TLR8; [1]): 0.41 nM | IC50 (human TLR7): 0.49 nM | IC50 (human TLR9; [2]): 3980 nM

Cc1c(-c2[nH]c3cnc(C4CCC(NC5COC5)CC4)c(F)c3c2C(C)C)cn2ncnc2c1C (centres unmarked) [Example 267]
IC50 (human TLR8; [1]): 1.9 nM | IC50 (human TLR7): 6.9 nM | IC50 (human TLR9; [2]): 16700 nM

COc1cc(-c2[nH]c3cnc(C4CCC(N5CCC5)CC4)c(F)c3c2C(C)C)cn2ncnc12 (centres unmarked) [Example 75]
IC50 (human TLR8; [1]): 5.6 nM | IC50 (human TLR7): 2.5 nM | IC50 (human TLR9; [2]): 447 nM

COc1cc(-c2[nH]c3cnc(N4CCN(CC5CC5)C[C@H]4C)c(F)c3c2C(C)C)cn2ncnc12 [Example 442]
IC50 (human TLR8; [1]): 7.1 nM | IC50 (human TLR7): 2.5 nM | IC50 (human TLR9; [2]): 7490 nM

Cc1c(-c2[nH]c3cnc(N4CCN(CC#N)C[C@H]4C)c(F)c3c2C(C)C)cn2ncnc2c1C [Example 467]
IC50 (human TLR8; [3]): 1.4 nM | IC50 (human TLR7): 2.8 nM | IC50 (human TLR9; [4]): 17100 nM

CNCC(=O)N1CCC(c2ncc3[nH]c(-c4cc(OC)c5ncnn5c4)c(C(C)C)c3c2C)CC1 [Example 12]
IC50 (human TLR8; [1]): 273 nM | IC50 (human TLR7): 53 nM | IC50 (human TLR9; [2]): 866 nM

Cc1cc(-c2[nH]c3cnc(C4CCN(CC5(C)COC5)CC4)c(F)c3c2C(C)C)cn2ncnc12 [Example 250]
IC50 (human TLR8; [1]): 3.4 nM | IC50 (human TLR7): 3.2 nM | IC50 (human TLR9; [2]): 4770 nM

Cc1c(-c2[nH]c3cnc(C4CCC(N5CCC5)CC4)c(F)c3c2C(C)C)cn2ncnc2c1C (centres unmarked) [Example 165]
IC50 (human TLR8; [1]): 0.62 nM | IC50 (human TLR7): 0.4 nM | IC50 (human TLR9; [2]): 905 nM

COc1cc(-c2[nH]c3cnc(N4CCC(NCC5(C)COC5)CC4)c(F)c3c2C(C)C)cn2ncnc12 [Example 67]
IC50 (human TLR8; [1]): 11 nM | IC50 (human TLR7): 9.1 nM | IC50 (human TLR9; [2]): 5800 nM

COc1cc(-c2[nH]c3cnc(N4CCC(N(C)C(C)C)CC4)c(F)c3c2C(C)C)cn2ncnc12 [Example 101]
IC50 (human TLR8; [1]): 0.66 nM | IC50 (human TLR7): 1.2 nM | IC50 (human TLR9; [2]): 4140 nM

Cc1c(-c2[nH]c3cnc(N4CCC(NC5CCOCC5)CC4)c(F)c3c2C(C)C)cn2ncnc2c1C [Example 264]
IC50 (human TLR8; [1]): 0.16 nM | IC50 (human TLR7): 0.69 nM | IC50 (human TLR9; [2]): 1640 nM

COc1cc(-c2[nH]c3cnc(N4CCC(N(C)C)CC4)c(F)c3c2C(C)C)cn2ncnc12 [Example 218]
IC50 (human TLR8; [3]): 0.6 nM | IC50 (human TLR7): 0.82 nM | IC50 (human TLR9; [4]): 4740 nM

CCCN1CC2(C1)CN(c1ncc3[nH]c(-c4cc(OC)c5ncnn5c4)c(C(C)C)c3c1F)C2 [Example 380]
IC50 (human TLR8; [1]): 7.8 nM | IC50 (human TLR7): 5.6 nM | IC50 (human TLR9; [2]): 1480 nM

COc1cc(-c2[nH]c3cnc(N4CCN(C5CCOCC5)C[C@H]4C)c(F)c3c2C(C)C)cn2ncnc12 [Example 452]
IC50 (human TLR8; [3]): 11 nM | IC50 (human TLR7): 4.8 nM | IC50 (human TLR9; [4]): 12600 nM

Cc1c(-c2[nH]c3cnc(N4CCC(NC5COC5)CC4)c(C)c3c2C(C)C)cn2ncnc2c1C [Example 237]
IC50 (human TLR8; [1]): 0.95 nM | IC50 (human TLR8; [3]): 0.95 nM | IC50 (human TLR7): 1.6 nM | IC50 (human TLR9; [2]): 2070 nM | IC50 (human TLR9; [4]): 2070 nM

COc1cc(-c2[nH]c3cnc(N4CCC(N(C)CC(F)F)CC4)c(F)c3c2C(C)C)cn2ncnc12 [Example 189]
IC50 (human TLR8; [1]): 16 nM | IC50 (human TLR7): 20 nM | IC50 (human TLR9; [2]): 30700 nM

COc1cc(-c2[nH]c3cnc(C4CCC(NC5CCOC5)CC4)cc3c2C(C)C)cn2ncnc12 (centres unmarked) [Example 342]
IC50 (human TLR8; [1]): 8.3 nM | IC50 (human TLR7): 3.8 nM | IC50 (human TLR9; [2]): 224 nM

CNCC(=O)N1CCC(c2ncc3[nH]c(-c4cc(C)nc(C)c4)c(C(C)C)c3c2F)CC1 [Example 214]
IC50 (human TLR8; [1]): 16 nM | IC50 (human TLR7): 7.5 nM | IC50 (human TLR9; [2]): 2070 nM

COc1cc(-c2[nH]c3cnc(C4CCC(NCC(C)(C)C)C4)cc3c2C(C)C)cn2ncnc12 (centres unmarked) [Example 210]
IC50 (human TLR8; [1]): 6.6 nM | IC50 (human TLR7): 34 nM | IC50 (human TLR9; [2]): 1080 nM

COc1cc(-c2[nH]c3cnc(C4CCC(N5CC6(COC6)C5)C4)cc3c2C(C)C)cn2ncnc12 (centres unmarked) [Example 208]
IC50 (human TLR8; [1]): 16 nM | IC50 (human TLR7): 12 nM | IC50 (human TLR9; [2]): 276 nM

Cc1c(-c2[nH]c3cnc(C4CCC(N5CC6(COC6)C5)CC4)c(F)c3c2C(C)C)cn2ncnc2c1C (centres unmarked) [Example 50]
IC50 (human TLR8; [1]): 0.83 nM | IC50 (human TLR7): 0.76 nM | IC50 (human TLR9; [2]): 1010 nM

COc1cc(-c2[nH]c3cnc(C4CCN(CC(C)(C)O)CC4)cc3c2C(C)C)cn2ncnc12 [Example 296]
IC50 (human TLR8; [1]): 5.4 nM | IC50 (human TLR7): 3.3 nM | IC50 (human TLR9; [2]): 132 nM

Cc1c(N2CCC(NCC(C)(C)O)CC2)ncc2[nH]c(-c3cc(C)c4ncnn4c3)c(C(C)C)c12 [Example 283]
IC50 (human TLR8; [1]): 0.27 nM | IC50 (human TLR7): 0.46 nM | IC50 (human TLR9; [2]): 1620 nM

COc1cc(-c2[nH]c3cnc(C4CCC(N5CC6(COC6)C5)CC4)cc3c2C(C)C)cn2ncnc12 (centres unmarked) [Example 309]
IC50 (human TLR8; [1]): 49 nM | IC50 (human TLR7): 7.3 nM | IC50 (human TLR9; [2]): 133 nM

COc1cc(-c2[nH]c3cnc(N4CC5(C4)CN(C4CCC4)C5)c(F)c3c2C(C)C)cn2ncnc12 [Example 381]
IC50 (human TLR8; [1]): 11 nM | IC50 (human TLR7): 9.9 nM | IC50 (human TLR9; [2]): 2580 nM

Cc1c(-c2[nH]c3cnc(N4CCN(C5CCOCC5)C[C@H]4C)c(F)c3c2C(C)C)cn2ncnc2c1C [Example 456]
IC50 (human TLR8; [3]): 1.6 nM | IC50 (human TLR7): 5.7 nM | IC50 (human TLR9; [4]): 16300 nM

COCCN1CCC(c2ncc3[nH]c(-c4cc(C)nc(C)c4)c(C(C)C)c3c2F)CC1 [Example 216]
IC50 (human TLR8; [3]): 12 nM | IC50 (human TLR7): 14 nM | IC50 (human TLR9; [4]): 4650 nM

CNCCN1CCC(c2cc3c(C)c(-c4ccc(OC)c(OC)c4)[nH]c3cn2)CC1 [Example 8]
IC50 (human TLR8; [1]): 15900 nM | IC50 (human TLR7): 6640 nM | IC50 (human TLR9; [2]): 258 nM

COc1cc(-c2[nH]c3cnc(N4CC5(C4)CN(C4CCN(C(C)C)CC4)C5)c(F)c3c2C(C)C)cn2ncnc12 [Example 377]
IC50 (human TLR8; [1]): 16 nM | IC50 (human TLR7): 16 nM | IC50 (human TLR9; [2]): 1410 nM

Cc1cc(-c2[nH]c3cnc(C4CCN(C5COC5)CC4)c(F)c3c2C(C)C)cn2ncnc12 [Example 182]
IC50 (human TLR8; [1]): 11 nM | IC50 (human TLR7): 3.8 nM | IC50 (human TLR9; [2]): 18800 nM

Cc1cc(-c2[nH]c3cnc(C4CCC(NC5(C)COC5)CC4)c(F)c3c2C(C)C)cn2ncnc12 (centres unmarked) [Example 231]
IC50 (human TLR8; [3]): 6.6 nM | IC50 (human TLR7): 5.9 nM | IC50 (human TLR9; [4]): 4170 nM

COc1cc(-c2[nH]c3cnc(C4CCC(NCC(C)(C)C)CC4)c(F)c3c2C(C)C)cn2ncnc12 (centres unmarked) [Example 162]
IC50 (human TLR8; [1]): 1 nM | IC50 (human TLR7): 1.3 nM | IC50 (human TLR9; [2]): 2150 nM

Cc1c(-c2[nH]c3cnc(N4CCN(C5COC5)C[C@H]4C)c(F)c3c2C(C)C)cn2ncnc2c1C [Example 457]
IC50 (human TLR8; [3]): 2.5 nM | IC50 (human TLR7): 3.2 nM | IC50 (human TLR9; [4]): 22000 nM

COc1cc(-c2[nH]c3cnc(C4CCC(NC5COC5)C4)cc3c2C(C)C)cn2ncnc12 (centres unmarked) [Example 273]
IC50 (human TLR8; [1]): 16 nM | IC50 (human TLR7): 8.6 nM | IC50 (human TLR9; [2]): 376 nM

Cc1cc(-c2[nH]c3cnc(C4CCN(C(=O)CN(C)C)CC4)c(F)c3c2C(C)C)cn2ncnc12 [Example 65]
IC50 (human TLR8; [1]): 5.6 nM | IC50 (human TLR7): 2.2 nM | IC50 (human TLR9; [2]): 3320 nM

COc1cc(-c2[nH]c3cnc(C4CCN(C5CCOCC5)CC4)c(F)c3c2C(C)C)cn2ncnc12 [Example 217]
IC50 (human TLR8; [3]): 4.4 nM | IC50 (human TLR7): 3.4 nM | IC50 (human TLR9; [4]): 7600 nM

COc1cc(-c2[nH]c3cnc(N4CCN(CC(F)(F)F)CC4)c(F)c3c2C(C)C)cn2ncnc12 [Example 366]
IC50 (human TLR8; [1]): 39 nM | IC50 (human TLR7): 3.8 nM | IC50 (human TLR9; [2]): 16200 nM

COc1cc(-c2[nH]c3cnc(N4CC5(C4)CN(C(C)C)C5)c(F)c3c2C(C)C)cn2ncnc12 [Example 373]
IC50 (human TLR8; [1]): 7.1 nM | IC50 (human TLR7): 8.1 nM | IC50 (human TLR9; [2]): 5820 nM

— patent publication US11912703B2, “6-azaindole compounds” (BRISTOL-MYERS SQUIBB COMPANY, priority 2017, dated 2024)
